What all share (format): physicochemical
Series [1] is described as follows: Drug substance stability (API in closed Type I glass vials at 40° C. and 60° C.). Here is the method:
Methodology: Approximately 100 mg of the API (Lot 009M9B058) were stored at each of 40° C. and 60° C. in closed Type I glass vials. Samples were analyzed for appearance and percent purity at T0 and after 1 week, 2 weeks and 4 weeks of storage.
Visually, there were no signs of degradation (i.e. discoloration etc.).

Series [2] in a line: pH solubility study (100 mM citric acid, titrated with NaOH, shaken overnight at room temperature, filtered, HPLC). The conditions noted are these: for Cmp. A.H2SO4 Concentration: no excess solid, not saturation solubility. Here is the method:
A pH solubility study was performed to assess the feasibility of formulating a compound having Formula (I) as a simple buffered solution at a reasonable pH for a nasal formulation.
Methodology: A compound having Formula (I) and H2SO4 solution of concentration ˜107 mg/mL in 100 mM citric acid at pH 2.5 was prepared. About 150 μL aliquots of this solution were transferred into 6 separate glass HPLC vials. All the samples, including the solution at pH 2.5, were shaken overnight at room temperature using a gyratory shaker. After shaking, the samples were evaluated visually for the presence of precipitate and were then spin filtered through 0.45 μm syringe tip filters (4 mm diameter) at 3000 rpm for 20 min. The final pH values of the filtrates were measured. The filtrates were then diluted appropriately and analyzed for compound having Formula (I). H2SO4 concentration using the HPLC assay.
Results: The pH values of the samples prior to and after shaking overnight, appearance as well as concentrations of samples are shown in Table 12.

Series [3] can be described thus: Stability as a function of pH, narrow range (pH 2-3.6, ~10 mM citric acid and glycine buffers, 1 mg/mL). The conditions noted are these: Target pH 2.0; 40° C. Storage 4 wk; listed as Cmp. A. As to the method:
Accordingly, the stability of the compound was evaluated in the pH range 2-3.6.
Methodology: Buffer solutions containing ˜10 mM each of citric acid and glycine in the pH range 2-3.6 were prepared by titrating 250 mL of a single stock containing both buffer agents with 1N NaOH/1N HCl and removing 50 mL aliquots at predetermined pH values. Solutions at 1 mg/mL were prepared in the buffers by dissolving ˜25 mg of compound in ˜23 mL of a given buffer, adjusting the pH to the target and making up the volume to 25.0 mL in a volumetric flask.
Each of the buffered solutions was filtered through a […] polyether sulfone syringe filter into a volumetric flask previously rinsed with 70% ethanol and dried in a laminar flow hood. Following filtration, each buffered solution was split into 9 aliquots in 5 mL serum vials previously rinsed with 70% ethanol and dried in a laminar flow hood. Filtration and preparation of aliquots were performed in a laminar flow hood. Of the nine aliquots, three aliquots were stored at each 40° C. and 60° C., two aliquots were stored at 25° C. and one aliquot was submitted for T0 testing. Samples were evaluated for pH, assay and related substances at TO and, following 1 week, 2 weeks and 4 weeks of storage at 40° C. and 60° C. Samples stored at 25° C. served as controls to be analyzed if necessary. […]

Each structure is given as a SMILES string.

With `CCCNc1nc(NCCC)nc(N(C)OC)n1` [Cmp. A.H2SO4, N-(4,6-Bis-n-propylamino-[1,3,5]triazin-2-yl)-O,N-dimethyl-hydroxylamine], the “Stability of the API on storage (in words)” value in series [1] (4 weeks, even at 60° C.) is “quite stable”. Moreover, the “Purity (%)” value in series [1] (40° C., T = 1 week) was determined as 99.92%; in series [1] (40° C., T = 2 week), 99.90%; in series [1] (40° C., T = 4 week), 100.00%; in series [1] (60° C., T = 1 week) it was 99.76%; in series [1] (60° C., T = 2 week) it was 100.00%; in series [1] (60° C., T = 4 week), 100.00%. Besides, the “Purity (%)” value in series [1] (T = 0) came to 100.00%. The “Final pH after Shaking and Filtration” value in series [2] (Target pH 2.5, Initial pH 2.51) is given as 2.42; in series [2] (Target pH 3.0, Initial pH 3.05) it was 3.00; in series [2] (Target pH 3.5, Initial pH 3.51), 3.51; in series [2] (Target pH 4.0, Initial pH 4.00), 3.79; in series [2] (Target pH 4.5, Initial pH 4.55), 4.37; in series [2] (Target pH 5.0, Initial pH 4.93) it was 4.52. In series [2] (Target pH 5.5, Initial pH 5.63), the “Final pH after Shaking and Filtration” value worked out at 5.02. Also, the “Cmp. A.H2SO4 Concentration” value in series [2] (Target pH 2.5, Initial pH 2.51) was found to be 104.1 mg/mL; in series [2] (Target pH 3.0, Initial pH 3.05), 99.8 mg/mL; in series [2] (Target pH 3.5, Initial pH 3.51), 101.6 mg/mL.

Take `CCCNc1nc(NCCC)nc(N(C)OC)n1` [Compound A, N-(4,6-Bis-n-propylamino-[1,3,5]triazin-2-yl)-O,N-dimethyl-hydroxylamine]: in series [3], the Assay is listed as 0956.

These data come from patent publication US20230310440A1, “RESPIRATORY STIMULANT NASAL FORMULATIONS” (Enalare Therapeutics Inc., priority 2022, published 2023).
